Assay results reported in patent publication US20260207798A1, “CYCLIC PEPTIDES AS PET IMAGING AGENTS OF GRANZYME B” (priority 2022, published 2026).
Numbered stars: 1 amine (or outer) side, 2 acyl side, 3 side chain; on linkers, the order of the positions; unused ones are H or OH. Bridge positions count the residues as written; N and C are the ends. Square brackets hold non-standard residues; d marks the D form. Primed or numbered codes have the meaning given here. Peptide text beside a SMILES is read from it. I, II: the chains in the order shown. CO(CH2)2(OCH2CH2)17CO = O=C(CCOCCOCCOCCOCCOCCOCCOCCOCCOCCOCCOCCOCCOCCOCCOCCOCCOCCC(=O)[*:2])[*:1]; NOTA‑1 = 1,4,7-triazacyclononane-N,N',N''-triacetic acid phenyl thiourea; Pro(trans-4-F) = O=C(O)[C@@H]1C[C@@H](F)CN1; Pro(cis-4-F) = O=C(O)[C@@H]1C[C@H](F)CN1; Pro(4R-Me) = C[C@H]1CN[C@H](C(=O)O)C1; Tic = O=C(O)[C@@H]1Cc2ccccc2CN1; PEG2′ = not defined here; Aib = CC(C)(N)C(=O)O

Assays:
[1] = target: human Granzyme B (hGranzyme B) (Homo sapiens, UniProt P10144); assay: Surface plasmon resonance (SPR) binding kinetics to hGranzyme B; details: 25° C., 1:1 binding model, KD=kd/ka; read-out: Granzyme B SPR Kd
Method: The kinetics of test peptide binding to human Granzyme B (hGranzyme B) was determined by SPR. All experiments were performed at 25° C. using the Biacore 8k+ instrument (Cytiva, Marlborough, MA). The Biacore 8k+ Insight Evaluation Software Version 3.0 was used to fit the data with a 1:1 binding model to determine the association rate constant ka (M^−1s^−1, where “M” ~equals molar and “s” ~equals seconds) and the dissociation rate constant kd (s^−1). These rate constants were used to calculate the equilibrium dissociation constant. KD (M)=kd/ka.
To measure the binding kinetics of peptides of interest, surfaces were prepared by a capture method to a Series S Streptavidin (SA) chip using a 1×HBS-EP+ running buffer (Cytiva). hGranzyme B was diluted to 10 μg/mL in IX HBS-EP+ and flowed over spot 2 of each flow cell on the chip at a flow rate of 10 ul/min for 20 s to achieve a level of capture of ~1100 RU. An unmodified spot 1 of each flow cell was used as a matrix binding control or reference surface. Binding kinetics were measured using single cycle kinetics at 25° C. by injecting 5 concentrations with 3-fold serial dilutions of test peptides from 0.01 μM to 1 μM. Compound dilutions were performed manually in a running buffer containing 1×HBS-EP+(Cytiva), and a final concentration of 2% DMSO. The interaction analyses over hGranzyme B, were performed using a 120 s association time and a 900 s dissociation time. All experiments were conducted at a flow rate of 50 μL/min with a data collection rate of 10 Hz.
Peptide dilution series included 2 zero concentration points (no compound) which were averaged and subtracted from the peptide concentration injection as DMSO control responses. Binding data acquired from the reference surface (matrix binding control) were subtracted from the binding data for hGranzyme B surface on the chip to determine specific binding. Next, the association phase data were solvent corrected to account for any signal fluctuation throughout the experiment due to subtle DMSO concentration differences. Corrected response data were analyzed using the Biacore 8k+ Evaluation Software Version 3.0 according to the manufacturer. SPR data for representative compounds of the disclosure are found in Table 8.

human Granzyme B [2] = target: T1, human Granzyme B (human, UniProt P10144 21-247); assay: cell-based or functional assay
T1 sequence (P10144 21-247 limits assumed): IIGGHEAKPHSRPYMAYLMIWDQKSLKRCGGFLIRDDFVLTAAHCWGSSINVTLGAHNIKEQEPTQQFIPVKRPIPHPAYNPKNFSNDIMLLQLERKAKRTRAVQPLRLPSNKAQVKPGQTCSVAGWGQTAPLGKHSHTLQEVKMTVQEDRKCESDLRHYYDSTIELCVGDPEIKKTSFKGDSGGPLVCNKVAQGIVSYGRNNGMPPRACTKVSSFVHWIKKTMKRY

human Granzyme B [3] = target: T1, human Granzyme B; assay: SPR, Biacore 8k+, hGranzyme B captured on SA chip, single cycle kinetics, 1:1 model

| Molecule | Kd [1] [nM] | Human Granzyme B IC50 (fluorogenic substrate enzyme inhibition assay) (human Granzyme B [2]) [nM] | Kd (human Granzyme B [3]) [nM] |
| --- | --- | --- | --- |
| C[C@@H]1NC(=O)[C@H](CO)NC(=O)[C@H](CCC(N)=O)NC(=O)[C@H](CC(=O)O)NC(=O)[C@H](CCC(=O)O)NC(=O)[C@H](Cc2ccccc2)NC(=O)[C@H](CC(N)=O)NC(=O)[C@H](Cc2ccccc2)NC(=O)CSC[C@@H](C(=O)NCC(=O)NCC(=O)N[C@@H](CCCCNC(=O)CCOCCOCCOCCOCCOCCOCCOCCOCCOCCOCCOCCOCCOCCOCCOCCOCCOCCC(=O)NCCCC[C@H](NC(=O)CNC(=O)CNC(=O)[C@@H]2CSCC(=O)N[C@@H](Cc3ccccc3)C(=O)N[C@@H](CC(N)=O)C(=O)N[C@@H](Cc3ccccc3)C(=O)N[C@@H](CCC(=O)O)C(=O)N[C@@H](CC(=O)O)C(=O)N[C@@H](CCC(N)=O)C(=O)N[C@@H](CO)C(=O)N[C@@H](C)C(=O)N[C@@H](CC(=O)O)C(=O)N[C@@H]([C@@H](C)O)C(=O)N[C@@H](Cc3c[nH]c4ccccc34)C(=O)N[C@@H](CCC(N)=O)C(=O)N3CCC[C@H]3C(=O)N2)C(N)=O)C(N)=O)NC(=O)[C@@H]2CCCN2C(=O)[C@H](CCC(N)=O)NC(=O)[C@H](Cc2c[nH]c3ccccc23)NC(=O)[C@H]([C@@H](C)O)NC(=O)[C@H](CC(=O)O)NC1=O [Compound 18a, (*F.N.F.E.D.Q.S.A.D.T.W.Q.P.*C.G.G.K.NH2)-PEG17-(F.N.F.E.D.Q.S.A.D.T.W.Q.P.C.G.G.K.NH2)] (I: {CH2CO}-FNFEDQSADTWQPCGGK-NH2 / II: {CH2CO}-FNFEDQSADTWQPCGGK-NH2; linker I:17-II:17 via CO(CH2)2(OCH2CH2)17CO (inferred); thioether I:N-I:14, II:N-II:14 (inferred)) | < 0.3 |  |  |
| C[C@@H](O)[C@@H]1NC(=O)CNC(=O)C(C)(C)NC(=O)[C@H](CO)NC(=O)[C@H](CCC(N)=O)NC(=O)[C@H](CC(=O)O)NC(=O)[C@H](CCC(=O)O)NC(=O)[C@H](Cc2ccccc2)NC(=O)[C@H](CC(N)=O)NC(=O)[C@H](Cc2ccccc2)NC(=O)CSC[C@@H](C(=O)NCC(N)=O)NC(=O)[C@@H]2CCCN2C(=O)[C@H](CCC(N)=O)NC(=O)[C@H](Cc2c[nH]c3ccccc23)NC1=O [Compound 45a, *F.N.F.E.D.Q.S.Aib.G.T.W.Q.P.*C.G.NH2] ({CH2CO}-FNFEDQS[Aib]GTWQPCG-NH2; thioether N-14) | 3.7 |  |  |
| C[C@@H](O)[C@@H]1NC(=O)[C@H](CC(=O)O)NC(=O)[C@@H]2CCCN2C(=O)[C@H](CO)NC(=O)[C@H](CCC(N)=O)NC(=O)[C@H](CC(=O)O)NC(=O)[C@H](CCC(=O)O)NC(=O)[C@H](Cc2ccccc2)NC(=O)[C@H](CC(N)=O)NC(=O)[C@H](Cc2ccccc2)NC(=O)CSC[C@@H](C(=O)NCC(N)=O)NC(=O)[C@@H]2C[C@H](F)CN2C(=O)[C@H](CCC(N)=O)NC(=O)[C@H](Cc2c[nH]c3ccccc23)NC1=O [Compound 48a, *F.N.F.E.D.Q.S.P.D.T.W.Q.Proc4F.*C.G.NH2] ({CH2CO}-FNFEDQSPDTWQ[Pro(cis-4-F)]CG-NH2; thioether N-14) | 4.2 |  |  |
| Compound 5a (linker I:17-II:17 via PEG2′; also: dimer of two macrocycles linked by PEG2 between Lys17 side chains, thioether at chain A 14 to a chain's N-terminus, thioether at chain B 14 to a chain's N-terminus, Dimer of two macrocycles linked by PEG2) peptide 1: {‑CH2C(O)‑}-FNFEDQSADTWQPCGGK-NH2 peptide 2: {‑CH2C(O)‑}-FNFEDQSADTWQPCGGK-NH2 |  | < 8 |  |
| {CH2CO}-FNFEDQSADTWQPCG-NH2 (thioether N-14; SMILES C[C@@H]1NC(=O)[C@H](CO)NC(=O)[C@H](CCC(N)=O)NC(=O)[C@H](CC(=O)O)NC(=O)[C@H](CCC(=O)O)NC(=O)[C@H](Cc2ccccc2)NC(=O)[C@H](CC(N)=O)NC(=O)[C@H](Cc2ccccc2)NC(=O)CSC[C@@H](C(=O)NCC(N)=O)NC(=O)[C@@H]2CCCN2C(=O)[C@H](CCC(N)=O)NC(=O)[C@H](Cc2c[nH]c3ccccc23)NC(=O)[C@H]([C@@H](C)O)NC(=O)[C@H](CC(=O)O)NC1=O) [Compound 1a] |  | < 8 | 19.8 |
| {CH2CO}-FNFEDQS[Pro(trans-4-F)]DTWQPCGGK(NOTA‑1)-NH2 (thioether N-14) [Compound 12a] |  | < 8 | 1.6 |
| {CH2CO}-FNFEDQSADTWQPCGGK(NOTA‑1)-NH2 (thioether N-14) [Compound 2a] |  | < 8 | 13.5 |

Continued, values first:

| Kd [1] [nM] | Human Granzyme B IC50 (fluorogenic substrate enzyme inhibition assay) (human Granzyme B [2]) [nM] | Kd (human Granzyme B [3]) [nM] | Molecule |
| --- | --- | --- | --- |
| 4.8 |  |  | C[C@@H](O)[C@@H]1NC(=O)[C@H](CC(=O)O)NC(=O)[C@@H]2CCCN2C(=O)[C@H](CO)NC(=O)[C@H](CCC(N)=O)NC(=O)[C@H](CC(=O)O)NC(=O)[C@H](CCC(=O)O)NC(=O)[C@H](Cc2ccccc2)NC(=O)[C@H](CC(N)=O)NC(=O)[C@H](Cc2ccccc2)NC(=O)CSC[C@@H](C(=O)NCC(=O)NCC(=O)N[C@@H](CCCCN)C(N)=O)NC(=O)[C@@H]2CCCN2C(=O)[C@H](CCC(N)=O)NC(=O)[C@H](Cc2c[nH]c3ccccc23)NC1=O [Compound 51a, *F.N.F.E.D.Q.S.P.D.T.W.Q.P.*C.G.G.K.NH2] ({CH2CO}-FNFEDQSPDTWQPCGGK-NH2; thioether N-14) |
| 4.8 |  |  | CC(C)C[C@@H]1NC(=O)[C@@H]2CCCN2C(=O)[C@H](CO)NC(=O)[C@H](CCC(N)=O)NC(=O)[C@H](CC(=O)O)NC(=O)[C@H](CCC(=O)O)NC(=O)[C@H](Cc2ccccc2)NC(=O)[C@H](CC(N)=O)NC(=O)[C@H](Cc2ccccc2)NC(=O)CSC[C@@H](C(=O)NCC(N)=O)NC(=O)[C@@H]2CCCN2C(=O)[C@H](CCC(N)=O)NC(=O)[C@H](Cc2c[nH]c3ccccc23)NC(=O)[C@H]([C@@H](C)O)NC1=O [Compound 52a, *F.N.F.E.D.Q.S.P.L.T.W.Q.P.*C.G.NH2] ({CH2CO}-FNFEDQSPLTWQPCG-NH2; thioether N-14) |
| 4.9 |  |  | C[C@@H](O)[C@@H]1NC(=O)[C@H](CC(=O)O)NC(=O)[C@@H]2CCCN2C(=O)[C@H](CO)NC(=O)[C@H](CCC(N)=O)NC(=O)[C@H](CC(=O)O)NC(=O)[C@H](CCC(=O)O)NC(=O)[C@H](Cc2ccccc2)NC(=O)[C@H](CC(N)=O)NC(=O)[C@H](Cc2ccccc2)NC(=O)CSC[C@@H](C(=O)NCC(N)=O)NC(=O)[C@@H]2Cc3ccccc3CN2C(=O)[C@H](CCC(N)=O)NC(=O)[C@H](Cc2c[nH]c3ccccc23)NC1=O [Compound 53a, *F.N.F.E.D.Q.S.P.D.T.W.Q.Tic.*C.G.NH2] ({CH2CO}-FNFEDQSPDTWQ[Tic]CG-NH2; thioether N-14) |
| 5.1 |  |  | C[C@@H]1C[C@H]2C(=O)N[C@H](C(=O)NCC(N)=O)CSCC(=O)N[C@@H](Cc3ccccc3)C(=O)N[C@@H](CC(N)=O)C(=O)N[C@@H](Cc3ccccc3)C(=O)N[C@@H](CCC(=O)O)C(=O)N[C@@H](CC(=O)O)C(=O)N[C@@H](CCC(N)=O)C(=O)N[C@@H](CO)C(=O)N3CCC[C@H]3C(=O)N[C@@H](CC(=O)O)C(=O)N[C@@H]([C@@H](C)O)C(=O)N[C@@H](Cc3c[nH]c4ccccc34)C(=O)N[C@@H](CCC(N)=O)C(=O)N2C1 [Compound 55a, *F.N.F.E.D.Q.S.P.D.T.W.Q.Prot4Me.*C.G.NH2] ({CH2CO}-FNFEDQSPDTWQ[Pro(4R-Me)]CG-NH2; thioether N-14) |
| 4.2 |  |  | C[C@@H](O)[C@@H]1NC(=O)[C@H](CC(=O)O)NC(=O)[C@@H]2C[C@@H](F)CN2C(=O)[C@H](CO)NC(=O)[C@H](CCC(N)=O)NC(=O)[C@H](CC(=O)O)NC(=O)[C@H](CCC(=O)O)NC(=O)[C@H](Cc2ccccc2)NC(=O)[C@H](CC(N)=O)NC(=O)[C@H](Cc2ccccc2)NC(=O)CSC[C@@H](C(=O)NCC(=O)NCC(=O)N[C@@H](CCCCN)C(N)=O)NC(=O)[C@@H]2CCCN2C(=O)[C@H](CCC(N)=O)NC(=O)[C@H](Cc2c[nH]c3ccccc23)NC1=O [Compound 87a, *F.N.F.E.D.Q.S.Prot4F.D.T.W.Q.P.*C.G.G.K.NH2] ({CH2CO}-FNFEDQS[Pro(trans-4-F)]DTWQPCGGK-NH2; thioether N-14) |
